Calls of active or inactive are those of the source.
Experiments:
[1] = target: Eukaryotic translation initiation factor 4H (Homo sapiens, UniProt Q15056); experiment: inhibitors of translation initiation factor eIF4H – SAR follow-up (AID 435011); type: functional
[2] = target: Polyadenylate-binding protein 1 (Homo sapiens, UniProt P11940); experiment: PABP inhibition in translation initiation, SAR follow-up (AID 435018); type: functional
Genome polyprotein = Genome polyprotein (dengue virus type 2, UniProt P29990); experiment: flavivirus cap methylation enzyme inhibition – biochemical, confirmation dose response, primary screen (AID 588689); type: functional
Sequence of Genome polyprotein (P29990 2492-3391 limits assumed): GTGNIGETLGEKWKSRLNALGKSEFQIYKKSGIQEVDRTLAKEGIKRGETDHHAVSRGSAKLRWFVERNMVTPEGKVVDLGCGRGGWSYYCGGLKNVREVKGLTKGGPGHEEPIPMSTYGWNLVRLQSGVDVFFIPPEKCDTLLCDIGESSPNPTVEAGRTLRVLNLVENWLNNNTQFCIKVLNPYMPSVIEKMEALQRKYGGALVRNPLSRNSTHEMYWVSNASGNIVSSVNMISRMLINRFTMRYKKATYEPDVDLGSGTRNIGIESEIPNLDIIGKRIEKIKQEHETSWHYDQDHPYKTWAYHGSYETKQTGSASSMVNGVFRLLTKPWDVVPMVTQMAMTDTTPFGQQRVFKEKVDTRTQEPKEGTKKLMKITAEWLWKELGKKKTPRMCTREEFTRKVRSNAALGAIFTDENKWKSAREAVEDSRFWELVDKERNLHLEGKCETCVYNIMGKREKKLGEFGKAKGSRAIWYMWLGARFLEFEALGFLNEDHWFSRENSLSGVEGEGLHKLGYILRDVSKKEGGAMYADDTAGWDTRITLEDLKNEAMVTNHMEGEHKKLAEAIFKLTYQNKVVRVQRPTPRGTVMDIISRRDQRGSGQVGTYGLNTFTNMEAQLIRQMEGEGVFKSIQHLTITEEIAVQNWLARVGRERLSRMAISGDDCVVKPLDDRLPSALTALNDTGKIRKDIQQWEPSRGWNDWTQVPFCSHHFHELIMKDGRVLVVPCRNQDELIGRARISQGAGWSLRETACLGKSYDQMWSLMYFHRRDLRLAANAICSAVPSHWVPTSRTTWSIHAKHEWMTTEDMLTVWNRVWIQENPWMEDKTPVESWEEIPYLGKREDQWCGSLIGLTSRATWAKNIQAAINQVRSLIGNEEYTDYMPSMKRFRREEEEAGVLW

X-box-binding protein 1 = X-box-binding protein 1 (Homo sapiens, UniProt P17861); type: functional, Cricetulus griseus;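 note: confirmatory dose-response counter-screen serving a CHOP assay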
Sequence of X-box-binding protein 1 (P17861 whole entry): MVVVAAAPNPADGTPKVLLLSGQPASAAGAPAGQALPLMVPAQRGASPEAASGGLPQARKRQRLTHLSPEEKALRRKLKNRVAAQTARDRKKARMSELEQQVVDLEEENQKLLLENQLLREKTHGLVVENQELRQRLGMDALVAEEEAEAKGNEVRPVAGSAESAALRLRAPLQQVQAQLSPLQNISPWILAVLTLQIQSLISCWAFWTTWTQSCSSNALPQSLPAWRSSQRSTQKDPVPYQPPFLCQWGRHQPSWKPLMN

[3] = target: T1, Corticotropin-releasing factor receptor 2/Corticotropin-releasing factor-binding protein (Homo sapiens, UniProt P24387+Q13324); experiment: activators of CRF receptor 2 with binding protein – uHTS hits, confirmation (AID 602473); type: functional; settings: read-out: EC50_Mean
T1 sequence (Q13324 whole entry): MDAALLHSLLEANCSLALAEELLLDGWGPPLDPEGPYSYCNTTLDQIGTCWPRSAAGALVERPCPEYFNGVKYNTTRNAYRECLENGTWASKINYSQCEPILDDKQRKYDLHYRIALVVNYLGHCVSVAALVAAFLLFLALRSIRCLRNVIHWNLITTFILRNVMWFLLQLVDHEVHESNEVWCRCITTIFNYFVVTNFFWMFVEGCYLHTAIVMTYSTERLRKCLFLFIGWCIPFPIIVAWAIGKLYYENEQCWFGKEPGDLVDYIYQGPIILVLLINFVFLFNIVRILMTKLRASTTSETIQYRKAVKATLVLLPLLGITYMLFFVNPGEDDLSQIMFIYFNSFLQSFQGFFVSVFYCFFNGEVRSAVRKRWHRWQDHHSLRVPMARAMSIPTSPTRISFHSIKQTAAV
T1 sequence (P24387 whole entry): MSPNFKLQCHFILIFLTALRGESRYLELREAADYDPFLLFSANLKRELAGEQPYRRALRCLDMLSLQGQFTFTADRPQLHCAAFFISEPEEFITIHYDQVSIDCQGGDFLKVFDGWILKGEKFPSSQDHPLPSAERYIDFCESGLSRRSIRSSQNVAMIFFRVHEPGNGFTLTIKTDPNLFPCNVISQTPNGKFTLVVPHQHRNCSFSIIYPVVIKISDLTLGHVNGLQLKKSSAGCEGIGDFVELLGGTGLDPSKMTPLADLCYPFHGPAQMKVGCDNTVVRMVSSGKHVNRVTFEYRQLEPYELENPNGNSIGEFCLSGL

[4] = Trypanosoma cruzi growth suppression in host cells – NIH3T3 host cells, beta-gal luminescence, confirmation (AID 2044); type: functional, cell-based;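 note: intracellular parasites grown in NIH/3T3 mouse fibroblasts as host cells; luminescent beta-galactosidase reporter signal from transgenic T. cruzi replicating inside host cells; inhibitors lower the luminescence signal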
[5] = NIH3T3 cell viability loss – ATP luminescence, mouse fibroblasts, counter-screen, dose response (AID 2010); type: functional, cell-based;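 note: cells exposed to compound for about 90 hours before reading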
Bcl-2-like protein 10 = target: T2, Bcl-2-like protein 10 (Homo sapiens, UniProt Q9HD36); experiment: Bcl-B/TR3 peptide binding disruption – biochemical, fluorescence polarization, FITC-TR3 peptide, selectivity assay for Bfl-1 inhibitor project, primary screen (AID 748);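 note: fluorescence polarization from a fluorescein-labelled TR3 peptide binding purified Bcl-B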
T2 sequence (Q9HD36 whole entry): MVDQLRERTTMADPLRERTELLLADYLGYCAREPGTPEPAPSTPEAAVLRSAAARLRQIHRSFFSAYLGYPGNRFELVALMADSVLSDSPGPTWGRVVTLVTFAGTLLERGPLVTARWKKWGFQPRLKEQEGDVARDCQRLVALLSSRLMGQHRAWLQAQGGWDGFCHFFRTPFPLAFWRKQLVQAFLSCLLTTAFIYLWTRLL

[6] = target: E3 ubiquitin-protein ligase XIAP (Homo sapiens, UniProt P98170); experiment: Counter Screen using XIAP-Bir3 for Chemical Antagonists of Bir1/2 domains of IAP-family anti-apoptotic proteins. [Related pubchem assays (depositor defined):AID1018, AID1449, AID1514, AID1638, AID1749, AID1750, AID488957, AID488963]
[7] = target: T3, Carboxy-terminal domain RNA polymerase II polypeptide A small phosphatase 1 (Homo sapiens, UniProt Q9GZU7); experiment: CTDSP1 inhibitors, concentration-response, biochemical, absorbance readout, ultra-high-throughput screen actives (AID 540297); type: functional
T3 sequence (Q9GZU7 whole entry): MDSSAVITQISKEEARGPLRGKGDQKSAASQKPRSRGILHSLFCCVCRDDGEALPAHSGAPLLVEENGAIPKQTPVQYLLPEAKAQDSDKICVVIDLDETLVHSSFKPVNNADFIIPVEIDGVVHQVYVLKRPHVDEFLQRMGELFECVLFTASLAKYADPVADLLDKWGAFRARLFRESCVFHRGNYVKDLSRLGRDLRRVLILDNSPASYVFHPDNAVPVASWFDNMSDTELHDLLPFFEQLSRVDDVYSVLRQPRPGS

CAAX prenyl protease 2 = CAAX prenyl protease 2 (Saccharomyces cerevisiae S288c, UniProt Q03530); type: biochemical
[8] = target: G-protein coupled receptor 55 (Homo sapiens, UniProt Q9Y2T6); experiment: selective activators of receptor GPR55 – imaging, U2OS cells, beta-arrestin-GFP redistribution, primary screen (AID 1961); type: functional
Sequence of G-protein coupled receptor 55 (Q9Y2T6 whole entry): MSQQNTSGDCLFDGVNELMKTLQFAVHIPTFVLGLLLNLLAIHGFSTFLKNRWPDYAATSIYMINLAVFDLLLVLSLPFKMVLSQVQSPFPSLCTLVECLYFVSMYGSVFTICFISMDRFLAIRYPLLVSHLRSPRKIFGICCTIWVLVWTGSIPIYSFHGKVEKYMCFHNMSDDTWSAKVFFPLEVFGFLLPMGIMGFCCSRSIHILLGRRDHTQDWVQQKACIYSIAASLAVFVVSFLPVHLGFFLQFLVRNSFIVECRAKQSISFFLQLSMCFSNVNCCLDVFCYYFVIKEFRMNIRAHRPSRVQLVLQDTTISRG

Cytochrome P450 2D6 = Cytochrome P450 2D6 (Homo sapiens, UniProt P10635);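 note: CYP2D6 member of a cytochrome P450 panel assay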
[9] = test system: Streptococcus sp. 'group A'; experiment: Streptococcus pyogenes SK(-)GAS viability under kanamycin – luminescence, BacTiterGlo, confirmation, counter-screen for streptokinase expression inhibitor project, dose response (AID 1900); type: functional, organism-based
Cytochrome P450 2C9 = Cytochrome P450 2C9 (Homo sapiens, UniProt P11712)
Sequence of Cytochrome P450 2C9 (P11712 whole entry): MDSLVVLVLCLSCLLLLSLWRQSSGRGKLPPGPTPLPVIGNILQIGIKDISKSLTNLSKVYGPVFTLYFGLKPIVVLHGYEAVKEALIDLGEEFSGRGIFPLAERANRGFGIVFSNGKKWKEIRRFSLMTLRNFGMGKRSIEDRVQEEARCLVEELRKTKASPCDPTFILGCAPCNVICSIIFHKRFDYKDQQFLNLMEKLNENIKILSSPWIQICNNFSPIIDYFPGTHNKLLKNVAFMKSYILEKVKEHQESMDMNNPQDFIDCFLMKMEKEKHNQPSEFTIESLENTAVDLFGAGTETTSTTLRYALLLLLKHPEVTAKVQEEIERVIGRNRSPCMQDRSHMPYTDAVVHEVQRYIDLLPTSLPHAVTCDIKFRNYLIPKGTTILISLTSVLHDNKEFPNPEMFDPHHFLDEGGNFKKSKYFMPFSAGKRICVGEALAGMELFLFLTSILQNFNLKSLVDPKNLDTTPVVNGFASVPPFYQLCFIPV

Streptokinase A = target: T4, Streptokinase A (Streptococcus pyogenes serotype M1, UniProt P10520); experiment: viability-normalized secreted streptokinase activity reduction – plasminogen activation absorbance, OD405, dose response (AID 1914); type: functional, Streptococcus pyogenes M1 GAS;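 note: secreted streptokinase activity via plasminogen activation per viability signal from cell pellet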
T4 sequence (P10520 whole entry): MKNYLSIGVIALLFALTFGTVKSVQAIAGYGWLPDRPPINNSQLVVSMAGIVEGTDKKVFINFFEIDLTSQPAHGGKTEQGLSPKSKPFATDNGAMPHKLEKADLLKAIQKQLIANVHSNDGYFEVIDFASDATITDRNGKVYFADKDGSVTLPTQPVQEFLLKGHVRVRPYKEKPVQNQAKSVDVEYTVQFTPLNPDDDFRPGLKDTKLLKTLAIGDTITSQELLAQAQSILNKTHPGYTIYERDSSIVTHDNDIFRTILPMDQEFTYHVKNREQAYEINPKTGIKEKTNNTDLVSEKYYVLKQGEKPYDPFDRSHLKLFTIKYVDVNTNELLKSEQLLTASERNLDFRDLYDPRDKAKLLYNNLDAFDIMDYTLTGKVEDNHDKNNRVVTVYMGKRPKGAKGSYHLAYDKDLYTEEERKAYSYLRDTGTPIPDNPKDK

Prothrombin = Prothrombin (Homo sapiens, UniProt P00734); experiment: Thrombin 1536 HTS Dose Response Confirmation. [Related pubchem assays: 1046 (Thrombin 1536 HTS; hits were confirmed in this assay)]; type: functional
Streptococcus = experiment: GAS UMAA2166 growth inhibition – luminescence, BacTiterGlo, counter-screen for streptokinase expression inhibitor project, dose response (AID 1915); type: functional, organism-based;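 note: potency for reduction of bacterial viability or growth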
Coagulation factor XII = target: T5, Coagulation factor XII (Homo sapiens, UniProt P00748); experiment: activated coagulation factor XII inhibitor potency, concentration-effect curve, cell-free (AID 716); type: functional
T5 sequence (P00748 whole entry): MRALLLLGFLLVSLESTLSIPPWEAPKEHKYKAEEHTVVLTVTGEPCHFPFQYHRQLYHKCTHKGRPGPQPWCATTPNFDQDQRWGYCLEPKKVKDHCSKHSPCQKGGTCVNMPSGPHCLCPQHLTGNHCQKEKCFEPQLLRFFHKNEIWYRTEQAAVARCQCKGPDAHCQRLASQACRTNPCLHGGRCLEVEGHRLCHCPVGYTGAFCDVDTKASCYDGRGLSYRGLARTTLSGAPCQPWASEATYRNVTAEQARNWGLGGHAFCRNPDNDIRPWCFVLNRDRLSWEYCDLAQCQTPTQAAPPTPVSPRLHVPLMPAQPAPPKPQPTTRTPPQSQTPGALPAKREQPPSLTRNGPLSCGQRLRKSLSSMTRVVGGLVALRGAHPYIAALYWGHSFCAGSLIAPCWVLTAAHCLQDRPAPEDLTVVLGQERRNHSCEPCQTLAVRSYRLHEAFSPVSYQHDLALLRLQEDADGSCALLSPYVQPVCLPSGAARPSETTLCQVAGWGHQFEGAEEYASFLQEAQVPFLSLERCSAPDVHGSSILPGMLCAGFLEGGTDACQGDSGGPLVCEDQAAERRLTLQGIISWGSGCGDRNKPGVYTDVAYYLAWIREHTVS

Perilipin-1/ABHD5 = Perilipin-1/ABHD5 (Homo sapiens, UniProt O60240+Q8WTS1); experiment: Luminescence-based biochemical high throughput dose response assay for inhibitors of the interaction of the lipase co-activator protein, abhydrolase domain containing 5 (ABHD5) with perilipin-1 (PLIN1) (2K validation set). [Related pubchem assays (depositor defined):AID493027, AID493057]
[10] = target: 1-acylglycerol-3-phosphate O-acyltransferase ABHD5/Perilipin-5 (Homo sapiens, UniProt Q00G26+Q8WTS1); experiment: Luminescence-based biochemical high throughput dose response assay for inhibitors of the interaction of the lipase co-activator protein, abhydrolase domain containing 5 (ABHD5) with perilipin-5 (MLDP; PLIN5) (2K validation set). [Related pubchem assays (depositor defined):AID493035, AID493241]
Sequence of 1-acylglycerol-3-phosphate O-acyltransferase ABHD5/Perilipin-5 (Q00G26 whole entry, the tested form may be a part): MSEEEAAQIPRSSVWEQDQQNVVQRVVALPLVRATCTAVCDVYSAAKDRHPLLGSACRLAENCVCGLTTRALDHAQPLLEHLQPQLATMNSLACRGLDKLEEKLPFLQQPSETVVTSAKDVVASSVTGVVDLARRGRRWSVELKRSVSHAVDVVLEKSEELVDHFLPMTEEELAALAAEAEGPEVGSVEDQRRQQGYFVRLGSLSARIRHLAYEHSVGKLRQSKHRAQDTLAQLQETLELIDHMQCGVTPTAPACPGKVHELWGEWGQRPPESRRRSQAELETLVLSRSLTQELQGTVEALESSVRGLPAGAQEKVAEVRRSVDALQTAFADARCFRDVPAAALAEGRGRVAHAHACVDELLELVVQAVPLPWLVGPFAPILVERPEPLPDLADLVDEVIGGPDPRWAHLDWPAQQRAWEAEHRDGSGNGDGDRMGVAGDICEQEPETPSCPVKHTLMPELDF
Sequence of 1-acylglycerol-3-phosphate O-acyltransferase ABHD5/Perilipin-5 (Q8WTS1 whole entry, the tested form may be a part): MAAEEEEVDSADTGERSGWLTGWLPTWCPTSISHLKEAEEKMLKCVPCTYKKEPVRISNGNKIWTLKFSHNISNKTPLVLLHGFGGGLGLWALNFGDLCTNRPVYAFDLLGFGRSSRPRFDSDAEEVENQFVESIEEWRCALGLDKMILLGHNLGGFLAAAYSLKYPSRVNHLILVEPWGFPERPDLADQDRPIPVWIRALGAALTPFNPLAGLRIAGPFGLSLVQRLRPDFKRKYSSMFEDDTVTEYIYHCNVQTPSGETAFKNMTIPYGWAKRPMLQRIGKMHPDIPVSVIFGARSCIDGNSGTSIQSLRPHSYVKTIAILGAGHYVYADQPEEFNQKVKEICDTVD

[11] = target: Induced myeloid leukemia cell differentiation protein Mcl-1 (Homo sapiens, UniProt Q07820); type: functional
Sequence of Induced myeloid leukemia cell differentiation protein Mcl-1 (Q07820 whole entry): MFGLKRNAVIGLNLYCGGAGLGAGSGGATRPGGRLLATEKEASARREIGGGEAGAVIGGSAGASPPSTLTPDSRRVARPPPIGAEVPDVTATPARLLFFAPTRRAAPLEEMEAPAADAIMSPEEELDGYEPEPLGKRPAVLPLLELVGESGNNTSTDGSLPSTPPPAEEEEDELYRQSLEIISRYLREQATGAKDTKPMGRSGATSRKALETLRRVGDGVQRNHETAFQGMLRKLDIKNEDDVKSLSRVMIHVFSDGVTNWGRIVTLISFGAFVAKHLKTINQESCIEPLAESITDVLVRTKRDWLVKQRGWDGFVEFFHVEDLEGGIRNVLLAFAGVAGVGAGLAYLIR

Protein Rev = Protein Rev (Human immunodeficiency virus type 1 group M subtype B (isolate HXB2)(HIV-1), UniProt P04618); experiment: blockers of HIV Rev/RRE RNA complex – biochemical, fluorescence polarization, HIV-1, dose response (AID 434976); parameters: species or system Human immunodeficiency virus 1
Sequence of Protein Rev (P04618 whole entry): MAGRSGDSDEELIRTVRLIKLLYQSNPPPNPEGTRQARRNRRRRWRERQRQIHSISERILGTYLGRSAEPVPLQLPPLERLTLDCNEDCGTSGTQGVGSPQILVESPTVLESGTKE

[12] = target: Female germline-specific tumor suppressor gld-1 (Caenorhabditis elegans, UniProt Q17339); experiment: blockers of GLD-1/TGE RNA complex formation – biochemical, fluorescence polarization, C. elegans, dose response (AID 2802);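 note: fluorescence polarization of labeled TGE RNA bound by purified gld-1 protein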
Sequence of Female germline-specific tumor suppressor gld-1 (Q17339 whole entry): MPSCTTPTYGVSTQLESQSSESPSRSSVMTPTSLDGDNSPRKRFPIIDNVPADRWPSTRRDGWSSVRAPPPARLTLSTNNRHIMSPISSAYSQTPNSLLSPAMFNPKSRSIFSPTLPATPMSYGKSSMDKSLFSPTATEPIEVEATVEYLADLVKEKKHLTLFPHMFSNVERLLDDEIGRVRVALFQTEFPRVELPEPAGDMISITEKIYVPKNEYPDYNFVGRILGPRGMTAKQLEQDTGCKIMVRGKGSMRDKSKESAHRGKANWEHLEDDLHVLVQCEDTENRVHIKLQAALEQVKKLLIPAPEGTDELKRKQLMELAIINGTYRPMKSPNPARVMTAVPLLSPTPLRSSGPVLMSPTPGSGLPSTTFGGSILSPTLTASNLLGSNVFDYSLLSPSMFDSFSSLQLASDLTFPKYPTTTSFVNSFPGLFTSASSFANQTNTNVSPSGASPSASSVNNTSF

HEK293 [13] = experiment: cells; type: functional, cell-based; settings: Homo sapiens
HEK293 [14] = experiment: inhibition of NOD1-driven NF-kB reporter – cell-based, luminescence, uHTS, primary screen (AID 1578); type: functional; settings: Homo sapiens
HEK293 [15] = experiment: cells; type: functional, cell-based; settings: Homo sapiens; remark: listed apart in the source
HEK293 [16] = experiment: cells; type: functional, cell-based; settings: Homo sapiens; remark: listed apart in the source
HEK293 [17] = experiment: NOD2 signaling inhibitors in MDP-stimulated cells, cell-based, uHTS, luminescence (AID 2001); type: functional; settings: Homo sapiens
[18] = target: Nucleotide-binding oligomerization domain-containing protein 2 (Homo sapiens, UniProt Q9HC29); experiment: inhibition of NOD2-driven NF-kB reporter – cell-based, luminescence, uHTS, HEK293 (AID 1566); type: functional
[19] = viability of PTEN-deleted HCT116 cells – cell-based, HCT116 PTEN knockout, dose response (AID 1047); type: functional;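 note: HCT116 colon tumor cells with PTEN knocked out; cells exposed to compound for 60 hours before readout; potency for loss of cell viability measured by luminescence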
Nonstructural protein 1 = Nonstructural protein 1 (Influenza A virus, UniProt Q194T2); type: functional, Influenza A virus (A/California/07/2009(H1N1))
Sequence of Nonstructural protein 1 (Q194T2 whole entry): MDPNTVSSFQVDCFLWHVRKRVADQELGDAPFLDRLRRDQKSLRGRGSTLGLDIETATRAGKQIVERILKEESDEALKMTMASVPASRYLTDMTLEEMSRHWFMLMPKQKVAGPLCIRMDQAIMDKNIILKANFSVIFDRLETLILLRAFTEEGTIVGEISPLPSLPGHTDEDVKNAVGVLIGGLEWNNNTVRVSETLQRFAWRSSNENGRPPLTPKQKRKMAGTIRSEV

[20] = viability of HCT116 lacking mutant beta-catenin – cell-based, human colon tumor, dose response (AID 1045); type: functional;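 note: HCT116 colon tumor cells with beta catenin knocked out; cells exposed to compound for 60 hours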
[21] = microbe, parasite or virus in culture; type: functional; settings: Mycobacterium tuberculosis

Sequence of Polyadenylate-binding protein 1 (P11940 whole entry): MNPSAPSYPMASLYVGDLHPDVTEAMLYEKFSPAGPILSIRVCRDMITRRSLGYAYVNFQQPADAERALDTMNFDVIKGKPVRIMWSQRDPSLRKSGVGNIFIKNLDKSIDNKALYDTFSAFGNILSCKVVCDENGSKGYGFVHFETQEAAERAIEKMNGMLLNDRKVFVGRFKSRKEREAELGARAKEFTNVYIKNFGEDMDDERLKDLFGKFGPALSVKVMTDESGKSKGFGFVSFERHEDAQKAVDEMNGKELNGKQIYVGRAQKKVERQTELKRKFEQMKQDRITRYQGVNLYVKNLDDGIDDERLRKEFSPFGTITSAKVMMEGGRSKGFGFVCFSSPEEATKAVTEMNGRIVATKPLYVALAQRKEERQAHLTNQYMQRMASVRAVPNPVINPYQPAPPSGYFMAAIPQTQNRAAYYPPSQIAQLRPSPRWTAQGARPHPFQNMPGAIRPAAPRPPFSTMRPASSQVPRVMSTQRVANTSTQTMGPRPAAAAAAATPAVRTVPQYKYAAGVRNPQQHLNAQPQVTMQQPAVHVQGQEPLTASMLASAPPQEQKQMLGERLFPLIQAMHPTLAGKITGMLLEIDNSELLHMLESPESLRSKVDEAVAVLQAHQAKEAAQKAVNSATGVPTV

## COc1ccc(C(=O)OCC(=O)Nc2ccc([N+](=O)[O-])cc2OC)c(O)c1
[1]
  IC50: > 100 µM (inactive)
[2]
  IC50: > 100 µM (inactive)

## CSC(SC)=C(C#N)C(=O)c1ccccc1
Genome polyprotein
  IC50: 84.6 µM (active)
X-box-binding protein 1
  Absolute IC50 (XBP1): 10 µM

## Cc1cc2c(cc1C)NC(c1c(C)n(C)n(-c3ccccc3)c1=O)C1=C(O)CC(C)(C)CC1=N2 (stereo not given)
[3]
  EC50: > 53 µM (inactive)
[4]
  EC50: 2.27 µM (active)
[5]
  EC50: > 30 µM (not active)
Bcl-2-like protein 10
  IC50: > 1.56 µM (inactive)

## Cc1ccccc1NC(=O)CN1C(=O)N/C(=C\c2ccccc2OCc2ccc(C(=O)O)cc2)C1=O
[1]
  IC50: 7.28 µM (active)
[6]
  IC50: > 20 µM (inactive)
[7]
  IC50: 4.3 µM (active)
[2]
  IC50: 78.5 µM (active)

## COc1ccc(C2Nc3ccccc3C(=O)N2Cc2ccccc2)cc1COc1ccccn1 (stereo not given)
CAAX prenyl protease 2
  AC50: 5.83 µM (active)

## Cc1ccccc1-n1cnc2cc(NCc3cccs3)ccc21
[8]
  EC50: > 32 µM (inactive)
Cytochrome P450 2D6
  AC50: 2.24 µM (inconclusive)
[9]
  EC50: 16.8 µM (active)
Cytochrome P450 2C9
  AC50: 39.8 µM (inconclusive)
Streptokinase A
  EC50: 87.8 µM (active)
Prothrombin
  IC50: > 50 µM (not active)
Streptococcus
  EC50: > 150 µM (not active)

## Cn1c(=O)c(C(=O)CN2CCCc3ccccc32)c(N)n(Cc2ccccc2)c1=O
Coagulation factor XII
  IC50: > 50 µM (inactive)

## COc1ccc(/C=C/C(=O)c2cc3cccc(OC)c3oc2=O)cc1
Perilipin-1/ABHD5
  IC50: 3.34 µM (active)
[10]
  IC50: 3.3 µM (active)

## CCOCC(=O)Nc1cc(-c2cn3cccnc3n2)ccc1C
Coagulation factor XII
  IC50: > 50 µM (inactive)
Cytochrome P450 2C9
  AC50: 22.4 µM (inconclusive)

## CC(C)c1nnc(N2C(=O)c3oc4ccccc4c(=O)c3C2c2ccco2)s1 (stereo not given)
X-box-binding protein 1
  Absolute IC50 (XBP1): 10 µM

## CN(C)c1ccc(/N=C2\C(=O)N(C)c3cccc4c(O)c5ccccc5c2c34)cc1
[11]
  IC50: 10.6 µM (active)
Protein Rev
  IC50: 1.05 µM (active)
[12]
  IC50: 0.868 µM (active)

## Cc1ccc(NC(=O)CCC(=O)N/N=C/c2ccccc2O)cc1
HEK293 [13]
  IC50: 14.7 µM (active)
HEK293 [14]
  EC50: > 20 µM (inactive)
HEK293 [15]
  IC50: > 20 µM (inactive)
HEK293 [16]
  IC50: > 20 µM (inactive)
HEK293 [17]
  IC50: > 20 µM (inactive)
[18]
  EC50: > 20 µM (inactive)

## O=C1Nc2ccccc2/C1=N\N=C\C1=C(N2CCOCC2)C(=C\c2ccccc2)/CC1
[8]
  EC50: > 32 µM (inactive)
[19]
  EC50: 14.2 µM (active)
Nonstructural protein 1
  IC50: 8.08 µM (active)
[20]
  EC50: 16 µM (active)
[21]
  CC50: 28.2 µM (active)

Source: ChEMBL document CHEMBL1201862, “PubChem BioAssay data set” (2004)
